“And” between values parts separate entries of the source, which are not always exact repeats. Equal values may be shown once.
Assays:
[1] = Volume of distribution in golden hamster infected with Leishmania infantum MHOM/MA(BE)/67 amastigotes at 50 mg/kg, po SID and measured after 24 hrs by LC-MS/MS analysis; format: ADME, organism-based, Mesocricetus auratus; conditions: in vivo
[2] = tested on: Leishmania infantum; experiment: Antileishmanial activity against intracellular Leishmania infantum MHOM/MA(BE)/67 ITMAP263 amastigotes infected in Swiss mouse peritoneal macrophage assessed as inhibition of parasite growth measured after 5 days by geimsa staining based microscopic analysis; format: functional, organism-based; conditions: MHOM/MA(BE)/67 ITMAP263, Peritoneal macrophage, 120 h
[3] = AUC (0 to 8) in golden hamster infected with Leishmania infantum MHOM/MA(BE)/67 amastigotes at 50 mg/kg, po SID and measured after 10 days by LC-MS/MS analysis; format: ADME, organism-based, Mesocricetus auratus; set-up: dose 50 mg/kg, time 10 day, route po; conditions: in vivo
[4] = Cmax in golden hamster infected with Leishmania infantum MHOM/MA(BE)/67 amastigotes at 50 mg/kg, po SID and measured after 24 hrs by LC-MS/MS analysis; format: ADME, organism-based, Mesocricetus auratus; set-up: time 24 hrs, dose 50 mg/kg, route po; conditions: in vivo
[5] = tested on: Leishmania infantum; experiment: Antileishmanial activity against intracellular Leishmania infantum MHOM/MA(BE)/67 amastigotes infected in golden hamster assessed as reduction of amastigote burdens in spleen at 50 mg/kg, po SID for 10 days by geimsa staining based microscopic analysis; format: functional; set-up: scale not given: the % may be the effect or the level left; conditions: time 10 day
[6] = target: T1, Cytochrome P450 (Homo sapiens, UniProt P04798+P05177+P05181+P08684+P10632+P10635+P11509+P11712+P13584+P20813+P20815+P20853+P24462+P24903+P33260+P33261+P51589+P78329+P98187+Q02928+Q08477+Q16678+Q16696+Q5TCH4+Q6VVX0+Q7Z449+Q8TAV3+Q96SQ9+Q9HB55); experiment: Metabolic stability in human liver microsomes S9 fraction assessed as CYP450-mediated metabolism by measuring parent compound remaining measured after 60 mins in presence of NADPH; format: ADME, subcellular; conditions: read-out: Stability
[7] = target: T2, UDP-glucuronosyltransferases (UGTs) (Homo sapiens, UniProt O60656+O75310+O75795+P06133+P0DTE4+P0DTE5+P16662+P19224+P22309+P22310+P35503+P35504+P36537+P54855+Q6UWM9+Q9BY64+Q9HAW7+Q9HAW8+Q9HAW9); experiment: Metabolic stability in human liver microsomes S9 fraction assessed as UGT-mediated metabolism by measuring parent compound remaining measured after 15 mins in presence of NADPH; format: ADME, subcellular; conditions: read-out: Stability
[8] = Metabolic stability in golden hamster liver microsomes S9 fraction assessed as CYP450-mediated metabolism by measuring parent compound remaining measured after 30 mins in presence of NADPH; format: ADME, subcellular, Mesocricetus auratus; conditions: read-out: Stability
[9] = Metabolic stability in golden hamster liver microsomes S9 fraction assessed as UGT-mediated metabolism by measuring parent compound remaining measured after 60 mins in presence of NADPH; format: ADME, subcellular, Mesocricetus auratus; conditions: read-out: Stability
[10] = target: T1, Cytochrome P450; experiment: Metabolic stability in human liver microsomes S9 fraction assessed as CYP450-mediated metabolism by measuring parent compound remaining measured after 15 mins in presence of NADPH; format: ADME, subcellular; conditions: read-out: Stability
[11] = Tmax in golden hamster infected with Leishmania infantum MHOM/MA(BE)/67 amastigotes at 50 mg/kg, po SID and measured after 24 hrs by LC-MS/MS analysis; format: ADME, organism-based, Mesocricetus auratus; conditions: in vivo
[12] = target: T2, UDP-glucuronosyltransferases (UGTs); experiment: Metabolic stability in human liver microsomes S9 fraction assessed as UGT-mediated metabolism by measuring parent compound remaining measured after 60 mins in presence of NADPH; format: ADME, subcellular; conditions: read-out: Stability
[13] = tested on: Leishmania infantum; experiment: Antileishmanial activity against sodium stibogluconate and potassium antimonyl tartrate resistant intracellular Leishmania infantum MHOM/FR/96/LEM3323-CI4 promastigotes infected in Swiss mouse peritoneal macrophages assessed as inhibition of parasite growth measured after 96 hrs by microscopic analysis; format: functional, organism-based; conditions: MHOM/FR/96/LEM3323-CI4, Peritoneal macrophage
[14] = Half life in golden hamster infected with Leishmania infantum MHOM/MA(BE)/67 amastigotes at 50 mg/kg, po SID and measured after 10 days by LC-MS/MS analysis; format: ADME, organism-based, Mesocricetus auratus; conditions: in vivo, time 10 day
[15] = Metabolic stability in golden hamster liver microsomes S9 fraction assessed as CYP450-mediated metabolism by measuring parent compound remaining measured after 15 mins in presence of NADPH; format: ADME, subcellular, Mesocricetus auratus; conditions: read-out: Stability
[16] = AUC (0 to 24) in golden hamster infected with Leishmania infantum MHOM/MA(BE)/67 amastigotes at 50 mg/kg, po SID and measured after 10 days by LC-MS/MS analysis; format: ADME, organism-based, Mesocricetus auratus; set-up: dose 50 mg/kg, time 10 day, route po; conditions: in vivo

Cc1ncnc2c1c(-c1cc(Cl)ccn1)cn2[C@@H]1O[C@H](CO)[C@@H](O)[C@H]1O
Vd [1]: 13 L/kg
EC50 [2]: 0.68 µM
AUC at 240 h [3]: 2840 ng·h/mL
Cmax [4]: 1100 ng/mL and 2.9 µM
Activity [5]: -1.8%
remaining at 1 h [6]: 75%
remaining at 0.25 h [7]: 93%
remaining at 0.5 h [8]: 95%
remaining at 1 h [9]: 89%
remaining at 0.25 h [10]: 92%
Tmax [11]: 0.5 h
remaining at 1 h [12]: 98%
EC50 [13]: 2.21 µM
half-life [14]: 1.7 h
remaining at 0.25 h [15]: 96%
AUC at 240 h [16]: 3380 ng·h/mL

From ChEMBL document CHEMBL5120865, “Exploration of 6-methyl-7-(Hetero)Aryl-7-Deazapurine ribonucleosides as antileishmanial agents” (Eur J Med Chem, 2022)
